Results reported in patent US3950525A, “Relaxation of smooth muscle in a mammal” (Pfizer Inc., priority 1975, dated 1976).
Where a name gives a salt, the structure may show the parent alone.

System: collagen induced platelet aggregation
Assay: In Vitro Inhibition of Platelet Aggregation (collagen induced, rabbit platelet-rich plasma)
Assay type: cell-based
Conditions: Oryctolagus cuniculus, 10 min; for inhibition at 600 µM: 6 × 10^^-4 mol./l.; for inhibition at 60 µM: 6 × 10^^-5 mol./l.; for inhibition at 6 µM: 6 × 10^^-6 mol./l.
Description: The ability of the compounds of the present invention to inhibit platelet aggregation in vitro is measured according to the method of Born, et al., J. Physiol., 168, 178 (1963) and comprises the following procedure: Anesthetized male rabbits are bled from a carotid artery into plastic centrifuge tubes containing 0.1 volume 3% sodium citrate. Platelet-rich plasma is separated by centrifugation at 100 G for 10 minutes at 20° C. […] After 10 minutes of incubation with the platelet-rich plasma at room temperature, collagen, a protein known to cause platelet aggregation, is added (0.27 ml. collagen/4 ml. plasma) and changes in the optical density are followed with a Spectronic 20 colorimeter attached to a Houston Instrument TY Recorder. Platelet aggregation is indicated by a decrease in optical density. The relative potency of the compounds of the present invention are thus rated on their ability to inhibit (percent) collagen induced platelet aggregation.

c1ccc(-c2cc(N3CCCCCC3)ncn2)cc1 [Ar=C6H5; R1,R2=--(CH2)6--; R3=H, 4-(1-Hexahydroazepinyl)-6-phenylpyrimidine hydrochloride]
inhibition at 600 µM: 99% | inhibition at 60 µM: 83% | inhibition at 6 µM: 29%

Nc1cccc(-c2cc(N3CCCC3)ncn2)c1 [Ar=3-NH2C6H4; R1,R2=--(CH2)4--; R3=H]
inhibition at 600 µM: 11%

Clc1ccc(-c2cc(N3CCCC3)ncn2)cc1 [Ar=4-ClC6H4; R1,R2=--(CH2)4--; R3=H, 4-(1-Pyrrolidinyl)-6-(p-chlorophenyl)pyrimidine hydrochloride]
inhibition at 600 µM: 99% | inhibition at 60 µM: 21%

CCCN(CCC)c1ncnc(-c2ccccc2)c1CC [Ar=C6H5; R1=n-C3H7; R2=n-C3H7; R3=C2H5]
inhibition at 6 µM: 5%

CNc1cc(-c2ccc(OC)cc2)ncn1 [Ar=4-CH3OC6H4; R1=H; R2=CH3; R3=H]
inhibition at 600 µM: 76% | inhibition at 60 µM: 13%

CCCN(CCC)c1ncnc(-c2ccccc2)c1C [Ar=C6H5; R1=n-C3H7; R2=n-C3H7; R3=CH3]
inhibition at 6 µM: 11%

CCN(CC)c1cc(-c2cccs2)ncn1 [Ar=2-thienyl; R1=C2H5; R2=C2H5; R3=H, 4-diethylamino-6-(2-thienyl)pyrimidine]
inhibition at 600 µM: 94% | inhibition at 6 µM: 75%

CCCN(CC)c1cc(-c2ccccc2)ncn1 [Ar=C6H5; R1=n-C3H7; R2=C2H5; R3=H, 4-(ethyl-n-propylamino)-6-phenylpyrimidine]
inhibition at 600 µM: 99% | inhibition at 60 µM: 86% | inhibition at 6 µM: 79%

CCCN(CCC)c1cc(-c2cccc(C(F)(F)F)c2)ncn1 [Ar=3-CF3C6H4; R1=n-C3H7; R2=n-C3H7; R3=H, 4-Di(n-propyl)amino-6-(m-trifluoromethylphenyl)pyrimidine hydrochloride]
inhibition at 600 µM: 99% | inhibition at 60 µM: 50%

CN(Cc1cccnc1)c1cc(-c2ccccc2)ncn1 [Ar=C6H5; R1=3-picolyl; R2=CH3; R3=H, 4-[Methyl(3-pyridylmethyl)amino]-6-phenylpyrimidine dihydrochloride]
inhibition at 600 µM: 99% | inhibition at 60 µM: 17%

CCN(CC(F)(F)F)c1cc(-c2ccccc2)ncn1 [Ar=C6H5; R1=CF3CH2; R2=C2H5; R3=H, 4-[Ethyl(2,2,2-trifluoroethyl)amino]-6-phenylpyrimidine hydrochloride]
inhibition at 600 µM: 65% | inhibition at 60 µM: 39% | inhibition at 6 µM: 34%

CCCc1c(-c2ccccc2)ncnc1N(CC)CC [Ar=C6H5; R1=C2H5; R2=C2H5; R3=n-C3H7]
inhibition at 6 µM: 55%

O=[N+]([O-])c1cccc(-c2cc(N3CCCC3)ncn2)c1 [Ar=3-NO2C6H4; R1,R2=--(CH2)4--; R3=H]
inhibition at 600 µM: 94% | inhibition at 60 µM: 25%

FC(F)(F)CNc1cc(-c2ccc(Cl)cc2)ncn1 [Ar=4-ClC6H4; R1=CF3CH2; R2=H; R3=H, 4-(2,2,2-Trifluoroethylamino)-6-(p-chlorophenyl)pyrimidine hydrochloride]
inhibition at 600 µM: 86% | inhibition at 60 µM: 18%

FC(F)(F)CNc1cc(-c2cccs2)ncn1 [Ar=2-thienyl; R1=CF3CH2; R2=H; R3=H]
inhibition at 60 µM: 81% | inhibition at 6 µM: 14%

CCCN(CCC)c1cc(-c2cccc(NS(C)(=O)=O)c2)ncn1
inhibition at 600 µM: 94% | inhibition at 60 µM: 3%

c1ccc(-c2cc(N3CCCCC3)ncn2)cc1 [Ar=C6H5; R1,R2=--(CH2)5--; R3=H, 4-(1-Piperidyl)-6-phenylpyrimidine hydrochloride]
inhibition at 600 µM: 94% | inhibition at 60 µM: 61% | inhibition at 6 µM: 60%

CCc1c(-c2ccco2)ncnc1N(CC)CC [Ar=2-furyl; R1=C2H5; R2=C2H5; R3=C2H5]
inhibition at 60 µM: 30%

CCc1c(-c2ccc(OC)cc2)ncnc1N(CC)CC [Ar=4-CH3OC6H4; R1=C2H5; R2=C2H5; R3=C2H5]
inhibition at 6 µM: 42%

COc1ccc(-c2cc(NCC(C)C)ncn2)cc1 [Ar=4-CH3OC6H4; R1=H; R2=i-C4H9; R3=H]
inhibition at 600 µM: 76% | inhibition at 60 µM: 54% | inhibition at 6 µM: 24%

CCCCNc1cc(-c2ccccc2)ncn1 [Ar=C6H5; R1=n-C4H9; R2=H; R3=H]
inhibition at 60 µM: 42% | inhibition at 6 µM: 30%

CCN(CC)c1cc(-c2cccc(N(C)C)c2)ncn1 [Ar=3-(CH3)2NC6H4; R1=C2H5; R2=C2H5; R3=H, 4-Diethylamino-6-(m-dimethylaminophenyl)pyrimidine hydrochloride]
inhibition at 600 µM: 89% | inhibition at 60 µM: 95% | inhibition at 6 µM: 85%

CC(C)CN(CC(C)C)c1cc(-c2ccccc2)ncn1 [Ar=C6H5; R1=i-C4H9; R2=i-C4H9; R3=H]
inhibition at 600 µM: 35% | inhibition at 60 µM: 24% | inhibition at 6 µM: 10%

CNc1cc(-c2ccccc2)ncn1 [Ar=C6H5; R1=CH3; R2=H; R3=H]
inhibition at 600 µM: 99% | inhibition at 60 µM: 66%

COc1ccc(-c2cc(N3CCCC3)ncn2)cc1 [Ar=4-CH3OC6H4; R1,R2=--(CH2)4--; R3=H]
inhibition at 600 µM: 92% | inhibition at 60 µM: 92% | inhibition at 6 µM: 39%

CCN(CC)c1cc(-c2cccc(NC(=O)NC)c2)ncn1
inhibition at 600 µM: 23%

CN(C)c1cc(-c2ccc(Cl)cc2)ncn1 [Ar=4-ClC6H4; R1=CH3; R2=CH3; R3=H, 4-Dimethylamino-6-(p-chlorophenyl)pyrimidine hydrochloride]
inhibition at 600 µM: 99% | inhibition at 60 µM: 58% | inhibition at 6 µM: 7%

CCCc1c(-c2ccccc2)ncnc1N(C)C [Ar=C6H5; R1=CH3; R2=CH3; R3=n-C3H7]
inhibition at 6 µM: 40%

CC(=O)Nc1cccc(-c2cc(N3CCCC3)ncn2)c1 [Ar=3-CH3CONHC6H4; R1,R2=--(CH2)4--; R3=H]
inhibition at 600 µM: 94% | inhibition at 60 µM: 30%

CCN(CC)c1cc(-c2cccc(NC(=S)NC)c2)ncn1
inhibition at 600 µM: 4.9%

CCc1c(-c2ccccc2)ncnc1N(CC)CC [Ar=C6H5; R1=C2H5; R2=C2H5; R3=C2H5, 4-Diethylamino-5-ethyl-6-phenylpyrimidine Hydrochloride]
inhibition at 6 µM: 48%

COc1ccc(-c2cc(N)ncn2)cc1 [Ar=4-CH3OC6H4; R1=H; R2=H; R3=H]
inhibition at 600 µM: 72% | inhibition at 60 µM: 24% | inhibition at 6 µM: 3%

CC(=O)Nc1cccc(-c2cc(N(C)C)ncn2)c1 [Ar=3-CH3CONHC6H4; R1=CH3; R2=CH3; R3=H]
inhibition at 600 µM: 93% | inhibition at 60 µM: 13%

CC(C)CNc1cc(-c2ccccc2)ncn1 [Ar=C6H5; R1=i-C4H9; R2=H; R3=H]
inhibition at 60 µM: 82% | inhibition at 6 µM: 17%

CCCCN(CCCC)c1cc(-c2cccc(NC(C)=O)c2)ncn1
inhibition at 600 µM: 15%

COc1ccc(-c2cc(N3CCN(C)CC3)ncn2)cc1
inhibition at 600 µM: 85% | inhibition at 60 µM: 55% | inhibition at 6 µM: 14%

CCCN(CCC)c1cc(-c2ccc(Cl)cc2)ncn1 [Ar=4-ClC6H4; R1=n-C3H7; R2=n-C3H7; R3=H, 4-Di(n-propyl)amino-6-(p-chlorophenyl)pyrimidine hydrochloride]
inhibition at 600 µM: 84% | inhibition at 60 µM: 70%

c1ccc(-c2cc(N3CCCC3)ncn2)cc1 [Ar=C6H5; R1,R2=--(CH2)4--; R3=H, 4-(1-Pyrrolidinyl)-6-phenylpyrimidine hydrochloride]
inhibition at 600 µM: 98% | inhibition at 60 µM: 70% | inhibition at 6 µM: 6%

CN(C)c1cc(-c2cccs2)ncn1 [Ar=2-thienyl; R1=CH3; R2=CH3; R3=H]
inhibition at 600 µM: 94% | inhibition at 60 µM: 82% | inhibition at 6 µM: 59%

CCCN(C)c1cc(-c2ccccc2)ncn1 [Ar=C6H5; R1=n-C3H7; R2=CH3; R3=H]
inhibition at 60 µM: 47% | inhibition at 6 µM: 39%

CCc1c(-c2ccccc2)ncnc1N(C)C [Ar=C6H5; R1=CH3; R2=CH3; R3=C2H5]
inhibition at 6 µM: 50%

Nc1cc(-c2ccccc2)ncn1 [Ar=C6H5; R1=H; R2=H; R3=H, 4-amino-6-phenylpyrimidine]
inhibition at 600 µM: 75% | inhibition at 60 µM: 65%

CCN(CC)c1ncnc(-c2ccccc2)c1C(C)C [Ar=C6H5; R1=C2H5; R2=C2H5; R3=i-C3H7]
inhibition at 6 µM: 63%

CCCN(CCC)c1cc(-c2ccc(OC)cc2)ncn1
inhibition at 600 µM: 91% | inhibition at 60 µM: 77% | inhibition at 6 µM: 64%

CN(CCO)c1cc(-c2ccccc2)ncn1 [Ar=C6H5; R1=HO(CH2)2; R2=CH3; R3=H, 4-[Methyl(2-hydroxyethyl)amino]-6-phenylpyrimidine hydrochloride]
inhibition at 600 µM: 99% | inhibition at 60 µM: 99% | inhibition at 6 µM: 28%

CCNc1cc(-c2ccccc2)ncn1 [Ar=C6H5; R1=C2H5; R2=H; R3=H, 4-ethylamino-6-phenylpyrimidine]
inhibition at 600 µM: 99% | inhibition at 60 µM: 91% | inhibition at 6 µM: 99%

Nc1cc(-c2cccs2)ncn1 [Ar=2-thienyl; R1=H; R2=H; R3=H]
inhibition at 600 µM: 91% | inhibition at 60 µM: 9%

CCCCN(CCCC)c1cc(-c2ccccc2)ncn1 [Ar=C6H5; R1=n-C4H9; R2=n-C4H9; R3=H]
inhibition at 60 µM: 56% | inhibition at 6 µM: 35%

CCN(CCO)c1cc(-c2ccc(Cl)cc2)ncn1 [Ar=4-ClC6H4; R1=C2H5; R2=HO(CH2)2; R3=H]
inhibition at 60 µM: 57% | inhibition at 6 µM: 18%

CCN(CC)c1cc(-c2cccc(N)c2)ncn1 [Ar=3-NH2C6H4; R1=C2H5; R2=C2H5; R3=H, 4-Diethylamino-6-(m-aminophenyl)pyrimidine dihydrochloride]
inhibition at 60 µM: 67% | inhibition at 6 µM: 41%
